In ChEMBL document CHEMBL1127842, “The desferrithiocin pharmacophore” (1994):
“And” between values parts separate entries of the source, which are not always exact repeats. Equal entries are not always repeated. The source made the active and inactive calls. No cut-off for these calls is given here.

How the values were obtained:
Rattus norvegicus [1] = species on record: Rattus norvegicus; assay: Efficiency of iron clearance was determined; format: functional; parameters: concentration or dose not given beside the values
Rattus norvegicus [2] = assay: Tested for Iron clearance of compound, when administered subcutaneously at a dose 150 umol/kg in bile duct cannulated rat; format: functional; conditions: in the assay text read “orally” for “subcutaneously”
Rattus norvegicus [3] = species on record: Rattus norvegicus; assay: Tested for formation constant of the compound; format: functional
Rattus norvegicus [4] = assay: Tested for Iron clearance of compound, when administered orally at a dose 150 umol/kg in bile duct cannulated rat; Inactive

SMILES	Efficiency (Rattus norvegicus [1])	Iron clearence (Rattus norvegicus [2]) [µg/kg]	Kf (Rattus norvegicus [3]) [M⁻¹]	Iron clearence (Rattus norvegicus [4])
O=C(O)[C@@H]1CSC(c2ncccc2O)=N1	3.9%	166		
CC(=O)N(O)CCCCCNC(=O)CCC(=O)N(O)CCCCCNC(=O)CCC(=O)N(O)CCCCCN [DEFEROXAMINE]	2.8% and 1%			
O=C(O)[C@H]1CSC(c2ncccc2O)=N1	2.4%	101	4e+29	
O=C(O)C1CCSC(c2ncccc2O)=N1 (stereo not drawn)				inactive
CN(O)C(=O)[C@H]1CSC(c2ncccc2O)=N1	3.1%			
